From patent US8802865B2 (Janssen Pharmaceutica, NV, priority 2006, dated 2014) come the findings set out here.

For one experiment, the system named is ventral prostate. Put plainly: Ventral Prostate Weight in vivo Assay (inhibition of testosterone-enhanced tissue weight). On the set-up: key: “active” in the Table below if the non weight adjusted prostate weight was ≦40 mg or the % Inhibition prostate weight, body weight adjusted was ≧40% @ 2 mg/day dosage; listed herein as “inactive” as they did not meet the specified criteria defined above. Particulars: castrated male Sprague Dawley rats, test compound usually orally once daily with testosterone propionate s.c.; ventral prostate wet weight; criteria at 2 mg/day dosage. The procedure: (§1) Ventral Prostate and Levator Ani Weight in vivo Assay
(§2) Immature (approximately 50 g) castrated male Sprague Dawley rats (Charles River) were treated once daily for five days with test compound (usually given orally at 40 mg/kg in a volume of 0.3 mL, in 30% cyclodextrin or 0.5% methylcellulose vehicle) and with testosterone propionate (given subcutaneously by injection at the nape of the neck at 2 mg/kg, in a volume of 0.1 mL in sesame oil). On the sixth day, the rats were euthanized by asphyxiation in carbon dioxide. Ventral prostates and levator ani were removed and their wet weights determined. Test compound activity was determined as the percent inhibition of testosterone-enhanced tissue weights, with a vehicle-treated control group set to zero percent and a testosterone alone-treated control group set to 100%.
(§3) Mature (150- to 200-g) castrated male Sprague Dawley rats (Charles River) are similarly tested according to the procedure described above. The rats were dosed for two weeks, with 0.4 mg/kg testosterone propionate used as the positive control.
(§4) Representative compounds of the present invention were tested according to the procedure described above, with results as listed in Table 3 below. For effect on prostate—i.e. an antagonist—a test compound is listed as “active” in the Table below if the non weight adjusted prostate weight was ≦40 mg or the % Inhibition prostate weight, body weight adjusted was ≧40% @ 2 mg/day dosage. For effect on levator ani—i.e. an agonist—a test compound is listed as “active” in the Table below if the non weight adjusted levator ani weight was ≧40 mg or the % Stimulation levator ani weight, body weight adjusted was ≧40% at 2 mg/day dosage.

A further experiment relates to levator ani. Put plainly: Levator Ani Weight in vivo Assay (stimulation of levator ani weight). Particulars: castrated male Sprague Dawley rats, test compound usually orally once daily with testosterone propionate s.c.; levator ani wet weight; criteria at 2 mg/day dosage. Further details: key: “active” in the Table below if the non weight adjusted prostate weight was ≦40 mg or the % Inhibition prostate weight, body weight adjusted was ≧40% @ 2 mg/day dosage; listed herein as “inactive” as they did not meet the specified criteria defined above. The procedure: as §1, §2, §3, §4

Regarding `FC(F)(F)C1(c2nc3cc(Cl)c(Cl)cc3[nH]2)NCCN1` [Compound 60, 5,6-Dichloro-2-(2-trifluoromethyl-imidazolidin-2-yl)-1H-benzimidazole], the Prostate antagonist result with ventral prostate is reported as “active”.

`C=CCCC(O)(c1nc2cc(Cl)c(Cl)cc2[nH]1)C(F)(F)F` (stereo not shown) [Compound 40, 2-(5,6-Dichloro-1H-benzoimidazol-2-yl)-1,1,1-trifluoro-hex-5-en-2-ol]: the Prostate antagonist entry in the experiment with ventral prostate was “active”. For `C=C=CC(O)(c1nc2cc(Cl)c(Cl)cc2[nH]1)C(F)(F)F` (single isomer, unassigned; (-)) [Compound 32, (−)-Enantiomer of 2-(5,6-Dichloro-1H-benzoimidazol-2-yl)-1,1,1-trifluoro-penta-3,4-dien-2-ol], the L.A. agonist entry in the experiment on levator ani was “inactive”. Moreover, the Prostate antagonist entry with ventral prostate is “active”. On to `CCn1c(C2(C(F)(F)F)OCCO2)nc2cc(Cl)c(Cl)cc21` [Compound 56, 5,6-Dichloro-1-ethyl-2-(2-trifluoromethyl-[1,3]dioxolan-2-yl)-1H-benzoimidazole], for which, in the experiment on ventral prostate, the Prostate antagonist entry is “active”. In the case of `C=CC(C)C(O)(c1nc2cc(Cl)c(Cl)cc2[nH]1)C(F)(F)F` (stereo not shown) [Compound 26], in the experiment on levator ani, the L.A. agonist result was “inactive”. Moreover, in the experiment on ventral prostate, the Prostate antagonist result is “active”.

For `FC(F)(F)C1(c2nc3cc(Cl)c(Cl)cc3[nH]2)OCC(CCl)O1` (stereo not shown) [Compound 50, 5,6-Dichloro-2-(4-chloromethyl-2-trifluoromethyl-[1,3]dioxolan-2-yl)-1H-benzimidazole], the Prostate antagonist entry with ventral prostate was “active”.

Consider `C#CCC(O)(c1nc2cc(Cl)c(Cl)cc2n1C)C(F)(F)F` (stereo not shown) [Compound 35, 2-(5,6-Dichloro-1-methyl-1H-benzoimidazol-2-yl)-1,1,1-trifluoro-pent-4-yn-2-ol], for which the Prostate antagonist result in the experiment on ventral prostate is “inactive”. Still for that read-out and setting: for `FC(F)(F)C1(c2nc3cc(Cl)c(Cl)cc3[nH]2)OCCO1` [Compound 47, 5,6-Dichloro-2-(2-trifluoromethyl-[1,3]dioxolan-2-yl)-1H-benzimidazole] the value was “active”. With `OCC1COC(c2nc3cc(Cl)c(Cl)cc3[nH]2)(C(F)(F)F)O1` (stereo not shown) [Compound 49, [2-(5,6-Dichloro-1H-benzoimidazol-2-yl)-2-trifluoromethyl-[1,3]dioxolan-4-yl]-methanol], the L.A. agonist entry in the experiment with levator ani is “inactive”. In addition, the Prostate antagonist result with ventral prostate is “active”. Turning to `C=CC(C)(C)C(O)(c1nc2cc(Cl)c(Cl)cc2[nH]1)C(F)(F)F` (stereo not shown) [Compound 25, 2-(5,6-Dichloro-1H-benzoimidazol-2-yl)-1,1,1-trifluoro-3,3-dimethyl-pent-4-en-2-ol], in the experiment on levator ani, the L.A. agonist result is “inactive”. For the same compound, in the experiment with ventral prostate, the Prostate antagonist result is on record as “active”. Turning to `CC(C)=C(C)C(O)(c1nc2cc(Cl)c(Cl)cc2[nH]1)C(F)(F)F` (stereo not shown) [Compound 42, 2-(5,6-Dichloro-1H-benzoimidazol-2-yl)-1,1,1-trifluoro-3,4-dimethyl-pent-3-en-2-ol], the L.A. agonist result with levator ani was “inactive”. Moreover, the Prostate antagonist result in the experiment with ventral prostate was “active”. Consider `C=C(CC(O)(c1nc2cc(Cl)c(Cl)cc2[nH]1)C(F)(F)F)C(=O)O` (stereo not shown) [Compound 27, 2-[2-(5,6-Dichloro-1H-benzoimidazol-2-yl)-3,3,3-trifluoro-2-hydroxy-propyl]-acrylic acid], for which the L.A. agonist result in the experiment on levator ani is “inactive”. Also, the Prostate antagonist result with ventral prostate is “inactive”. Take `C=C(C)C(O)(c1nc2cc(Cl)c(Cl)cc2[nH]1)C(F)(F)F` (stereo not shown) [Compound 9, 2-(5,6-Dichloro-1H-benzoimidazol-2-yl)-1,1,1-trifluoro-3-methyl-but-3-en-2-ol]: the L.A. agonist entry in the experiment on levator ani is “inactive”. The Prostate antagonist entry in the experiment on ventral prostate is “active”. The like results for `C#CCC(O)(c1nc2cc(Cl)c(Cl)cc2n1C)C(F)(F)F` (single isomer, unassigned; (+)) [Compound 36, (+)-Enantiomer of 2-(5,6-Dichloro-1-methyl-1H-benzoimidazol-2-yl)-1,1,1-trifluoro-pent-4-yn-2-ol] were, in that order, “inactive” and “inactive”. For `FC(F)(F)C1(c2nc3cc(Cl)c(Cl)cc3[nH]2)NCCO1` (stereo not shown) [Compound 61, 5,6-Dichloro-2-(2-trifluoromethyl-oxazolidin-2-yl)-1H-benzimidazole] the same measures were “inactive” and “active”. As for `OC(CC#Cc1ccccc1)(c1nc2cc(Cl)c(Cl)cc2[nH]1)C(F)(F)F` (stereo not shown) [Compound 34, 2-(5,6-Dichloro-1H-benzoimidazol-2-yl)-1,1,1-trifluoro-5-phenyl-pent-4-yn-2-ol], the L.A. agonist result with levator ani is “inactive”. For the same compound, the Prostate antagonist entry with ventral prostate is “inactive”. Take `CC#CC(O)(c1nc2cc(Cl)c(Cl)cc2[nH]1)C(F)(F)F` (stereo not shown) [Compound 8, 2-(5,6-Dichloro-1H-benzoimidazol-2-yl)-1,1,1-trifluoro-pent-3-yn-2-ol]: in the experiment on levator ani, the L.A. agonist result was “inactive”. Also, in the experiment with ventral prostate, the Prostate antagonist result is given as “active”.

In the case of `C=C=C(CC)C(O)(c1nc2cc(Cl)c(Cl)cc2[nH]1)C(F)(F)F` (stereo not shown) [Compound 62, 2-(5,6-Dichloro-1H-benzoimidazol-2-yl)-3-ethyl-1,1,1-trifluoro-penta-3,4-dien-2-ol], in the experiment with ventral prostate, the Prostate antagonist result is recorded as “active”. On the same count and under the same terms, for `C=CCn1c(C2(C(F)(F)F)OCCO2)nc2cc(Cl)c(Cl)cc21` [Compound 55, 1-Allyl-5,6-dichloro-2-(2-trifluoromethyl-[1,3]dioxolan-2-yl)-1H-benzoimidazole] the value was “active”. Take `C=CCC(O)(c1nc2cc(Cl)c(Cl)cc2[nH]1)C(F)(F)F` (single isomer, unassigned; (-)) [Compound 24, (−)-Enantiomer of 2-(5,6-Dichloro-1H-benzoimidazol-2-yl)-1,1,1-trifluoro-pent-4-en-2-ol]: the L.A. agonist entry with levator ani was “inactive”. In the experiment on ventral prostate, the Prostate antagonist entry is on record as “active”. The like results for `FC(F)(F)C1(c2nc3cc(Cl)c(Cl)cc3n2Cc2ccccn2)OCCO1` [Compound 48] were, in that order, “inactive” and “inactive”.

As to `OCC#CC(O)(c1nc2cc(Cl)c(Cl)cc2[nH]1)C(F)(F)F` (stereo not shown) [Compound 17, 4-(5,6-Dichloro-1H-benzoimidazol-2-yl)-5,5,5-trifluoro-pent-2-yne-1,4-diol], the L.A. agonist result with levator ani was “inactive”. Besides, the Prostate antagonist entry with ventral prostate is “active”. With `C=C=C(C)C(O)(c1nc2cc(C#N)c(C(F)(F)F)cc2[nH]1)C(F)(F)F` (stereo not shown) [Compound 41, 2-(1-Hydroxy-2-methyl-1-trifluoromethyl-buta-2,3-dienyl)-6-trifluoromethyl-1H-benzoimidazole-5-carbonitrile], in the experiment with levator ani, the L.A. agonist entry is “inactive”. For the same compound, in the experiment on ventral prostate, the Prostate antagonist entry is given as “active”. For the compound `N#Cc1cc2nc(C3(C(F)(F)F)OCCO3)[nH]c2cc1C(F)(F)F` [Compound 59, 6-Trifluoromethyl-2-(2-trifluoromethyl-[1,3]dioxolan-2-yl)-1H-benzimidazole-5-carbonitrile], the L.A. agonist entry with levator ani was “inactive”. For the same compound, the Prostate antagonist result in the experiment with ventral prostate is on record as “active”. Consider `C=CC(O)(c1nc2cc(Cl)c(Cl)cc2[nH]1)C(F)(F)F` (single isomer, unassigned; (-)) [Compound 44, (−)-2-(5,6-dichloro-1H-benzoimidazol-2-yl)-1,1,1-trifluoro-but-3-en-2-ol], for which the L.A. agonist entry in the experiment on levator ani is “inactive”. Further, the Prostate antagonist entry in the experiment with ventral prostate was “inactive”.

Regarding `C#CCn1c(C2(C(F)(F)F)OCCO2)nc2cc(Cl)c(Cl)cc21` [Compound 54, 5,6-Dichloro-1-prop-2-ynyl-2-(2-trifluoromethyl-[1,3]dioxolan-2-yl)-1H-benzoimidazole], the Prostate antagonist result in the experiment on ventral prostate is recorded as “active”. On the same count and under the same terms, under `Cn1c(C2(C(F)(F)F)OCCO2)nc2cc(Cl)c(Cl)cc21` [Compound 52, 5,6-Dichloro-1-methyl-2-(2-trifluoromethyl-[1,3]dioxolan-2-yl)-1H-benzoimidazole] stands “inactive”; under `N#CCn1c(C2(C(F)(F)F)OCCO2)nc2cc(Cl)c(Cl)cc21` [Compound 53, [5,6-Dichloro-2-(2-trifluoromethyl-[1,3]dioxolan-2-yl)-benzoimidazol-1-yl]-acetonitrile], “active”; under `COC(=O)Cn1c(C2(C(F)(F)F)OCCO2)nc2cc(Cl)c(Cl)cc21` [Compound 57, [5,6-Dichloro-2-(2-trifluoromethyl-[1,3]dioxolan-2-yl)-benzoimidazol-1-yl]-acetic acid methyl ester], “inactive”.
